Measured values as given in PMC5869554 (CPT: Pharmacometrics & Systems Pharmacology, 2017).
In brackets after ≈: the same amount, converted by molar mass. Where two headings read alike, the source gives them in different places.

What was measured:
[1] = Solubility in phosphate buffer at pH 7.4; type: physicochemical
[2] = LogD7.4, octanol/water partition coefficient; type: physicochemical; conditions: for logD: pH 7.4; for LogD7.4: aqueous phase at pH7.4
[3] = pKa determination; type: physicochemical
[4] = tested on: human bronchi; conditions: cited from earlier work
[5] = ref 8, 9; cited from earlier work
[6] = tested on: guinea pig trachea; conditions: cited from earlier work
[7] = tested on: forced expiratory volume in 1 second (FEV1); assay: Clinical lung function; type: in vivo, human; conditions: once daily dosing; glycopyrronium 25 µg, indacaterol 300 µg, batefenterol 800 µg; COPD patients
[8] = phosphate buffer, pH 7.4, aqueous buffer
[9] = pKa, second printed value (dibase)

Structure (SMILES): CNC(=O)c1cc(Cl)c(OC(C)(C)C(=O)O)cc1OC[C@@H](O)CN1CCC2(CC1)Cc1cc(Cl)ccc1O2 [AZD4818]
- solubility [1, 8]: > 2500 µM
- logD [2]: 0.9
- pKa ([3]; pKa): 8.4
- pKa [3, 9]: 6.2

Structure (SMILES): OCc1cc(C(O)CNCCCCCCOCCCCc2ccccc2)ccc1O (stereo not shown) [Salmeterol]
- solubility [1, 8]: > 380 µM
- In vitro human bronchi pIC50 ([4]; ref 21): 7.3
- In vitro human bronchi pIC50 ([4]; ref 22): 8.1
- logD [2]: 2.2
- pKa ([3]; pKa): 9.1

Structure (SMILES): COc1cc(NC(=O)CCN2CCC(OC(=O)Nc3ccccc3-c3ccccc3)CC2)c(Cl)cc1CNC[C@H](O)c1ccc(O)c2[nH]c(=O)ccc12 [Batefenterol, (R)‐1‐(3‐((2‐chloro‐4‐(((2‐hydroxy‐2‐(8‐hydroxy‐2‐oxo‐1,2‐dihydroquinolin‐5‐yl)ethyl)amino)methyl)‐5‐methoxyphenyl)amino)‐3‐oxopropyl)piperidin‐4‐yl [1,1'‐biphenyl]‐2‐ylcarbamate]
- solubility [1, 8]: 28 µM (≈ 20.7 µg/mL)
- lung half lives [5]: in the order of days
- In vitro guinea pig trachea pIC50 ([6]; ref 26): 8.026
- associated increase in FEV1, single to multiple dosing [7]: around 100 mL
- logD [2]: 3.1
- pKa ([3]; pKa): 10
- pKa [3, 9]: 7.3

Structure (SMILES): CC(C)c1ncc(C(=O)N2CCOC3(CCN(Cc4ccc(F)c(CCNC[C@H](O)c5ccc(O)c6[nH]c(=O)sc56)c4)CC3)C2)s1 [AZD2115]
- solubility ([1]; phosphate buffer at pH 7.4): 650 µM (≈ 435 µg/mL)
- LogD7.4 [2]: 2.1
- pKa [3]: 8.7
- pKa ([3]; second printed value (dibase)): 7.6

Structure (SMILES): CCc1cc2c(cc1CC)CC(NC[C@H](O)c1ccc(O)c3[nH]c(=O)ccc13)C2 [Indacaterol]
- solubility [1, 8]: 25 µM (≈ 9.81 µg/mL)
- In vitro human bronchi pIC50 ([4]; ref 22): 6.6
- In vitro human bronchi pIC50 ([4]; ref 24): 7.4
- In vitro guinea pig trachea pIC50 ([6]; ref 19): 7.719
- associated increase in FEV1, single to multiple dosing [7]: around 40 mL
- logD [2]: 2.8
- pKa ([3]; pKa): 8.3

Structure (SMILES): CC(C)(C)NCC(O)c1ccc(O)c(CO)c1 (stereo not shown) [Salbutamol]
- solubility [1, 8]: > 2900 µM
- In vitro human bronchi pIC50 ([4]; ref 21): 6.4
- In vitro human bronchi pIC50 ([4]; ref 22): 6.9
- In vitro guinea pig trachea pIC50 ([6]; ref 19): 6.719
- pKa ([3]; pKa): 9.2

Structure (SMILES): CC(C)(C)NCC(O)c1cc(O)cc(O)c1 (stereo not shown) [Terbutaline]
- solubility [1, 8]: 6830 µM (≈ 1540 µg/mL)
- logD [2]: -1.5
- pKa ([3]; pKa): 9.3

Structure (SMILES): COc1ccc(CC(C)NCC(O)c2ccc(O)c(NC=O)c2)cc1 (stereo not shown) [Formoterol]
- In vitro human bronchi pIC50 ([4]; ref 23): 8.8
- In vitro guinea pig trachea pIC50 ([6]; ref 19): 8.819

Structure (SMILES): CCN(CC)CCN(CCNCCc1ccc(O)c2[nH]c(=O)sc12)C(=O)CCOCCc1cccc2ccccc12 [AZD3199]
- solubility ([1]; phosphate buffer at pH 7.4): 2,510 µM
- lung half lives [5]: in the order of days
- In vitro guinea pig trachea pIC50 ([6]; ref 19): 8.019
- LogD7.4 [2]: 2.3
- pKa [3]: 9.5
- pKa ([3]; second printed value (dibase)): 7.1

Structure (SMILES): C[N+]1(C)CCC(OC(=O)C(O)(c2ccccc2)C2CCCC2)C1 (stereo not shown) [Glycopyrronium]
- In vitro human bronchi pIC50 ([4]; ref 24): 8.4
- In vitro human bronchi pIC50 ([4]; ref 25): 10.4
- In vitro guinea pig trachea pIC50 ([6]; ref 25): 9.025
- associated increase in FEV1, single to multiple dosing [7]: around 40 mL

Structure (SMILES): C[N+]1(C)[C@@H]2C[C@@H](OC(=O)C(O)(c3cccs3)c3cccs3)C[C@H]1[C@@H]1O[C@@H]12 [Tiotropium]
- solubility [1, 8]: > 2800 µM
- In vitro human bronchi pIC50 ([4]; ref 25): 9.525
- In vitro guinea pig trachea pIC50 ([6]; ref 25): 9.125

Structure (SMILES): CC(C)[N+]1(C)[C@@H]2CC[C@H]1C[C@@H](OC(=O)C(CO)c1ccccc1)C2 (stereo partly shown) [Ipratropium]
- In vitro human bronchi pIC50 ([4]; ref 25): 9.525
- In vitro guinea pig trachea pIC50 ([6]; ref 25): 8.625
